Key:
Type in all cases: biochemical
[1] = molecular target: CDK7/CyclinH/MAT1 (Homo sapiens, UniProt P50613); experiment: Determination of CDK activity (Caliper mobility shift, FAM-P8 peptide): CDK7; conditions: CDK7/CyclinH/MAT1; read-out: CDK7 enzymatic inhibitory activity (IC50)
Description: (§1) In vitro, CDK (CDK4, CDK6, CDK1, CDK2, CDK7, and CDK9) kinase activity was tested by the following method.
(§2) CDK and raw materials used here: CDK4/CycD3 (Carna, Cat. No 04-105, Lot. No 10CBS-0429 C, GST-CDK4(1-303end)/GST-CycD3(1-292end)); CDK6/cycD3 (Carna, Cat. No 04-107, Lot. No 09CBS-0622K, GST-CDK6(1-326(end))); CDK1/CyclinB (Millipore, Cat. 14-450k, Lot. No 25729U, His-CDK1+GST-cyclinB); CDK2/CycA2 (Carna, Cat. No 04-103, Lot. No 06CBS-3024, GST-CDK2 (1-298(end))); CDK7/CyclinH/MAT1 (Millipore, Cat. No 14-476M, Lot. No WAB0365-A, His-CDK7+GST-MAT1+cyclinH); CDK9/cyclinTl (Millipore, Cat. No 14-685K, Lot. No. 2476163-A, His-CDK9+cyclinTl); Peptide FAM-P8 (GL Biochem, Cat. No. 112396, Lot. No. P100804-XZ112396); ATP (Sigma, Cat. No. A7699-1G, CAS No. 987-65-5); DMSO (Sigma, Cat. No. D2650, Lot. No. 474382); EDTA (Sigma, Cat. No. E5134, CAS No. 60-00-4); 96-well plate (Corning, Cat. No. 3365, Lot. No. 22008026); 384-well plate (Corning, Cat. No. 3573, Lot. No. 12608008); Staurosporine (Sigma, Cat. No. S4400-1MG, Lot. No. 046K4080).
(§3) 1. Prepared 1× Kinase Buffer and Stop Buffer for the Test
(§4) 3) 1× Kinase Base Buffer (CDK7 and 9).
(§5) 1) Diluted the compound to 50 times of the maximum concentration with 100% DMSO. For example, if the desired maximum inhibitory concentration is 10 μM, then a DMSO solution of 500 μM concentration is required.
(§6) 2) Transferred the compound to a 96-well plate and serially diluted the compound from a 100% DMSO solution at a ratio of 30 μm to 60 μm for a total of 10 concentrations gradients. 3) Transferred 100 μm of 100% DMSO to two empty wells as a no compound control and a no enzyme control.
(§7) 4) Prepared intermediate plate and transferred the compound of 10 μm concentration from the original plate to the intermediate plate, and then 90 μm of 1× kinase buffer was added and mixed by shaking for 10 min.
(§8) 4) Preparing intermediate plate and transferred the compound of […] concentration from the original plate to the intermediate plate, and then 90 μm of 1× kinase buffer was added and mixed by shaking for 10 min.
(§9) 1) Transferred 5 μm of each compound from the 96-well intermediate plate to a 384-well plate. For example, A1 of the 96-well plate was transferred to A1 and A2 of the 384-well plate. A2 of the 96-well plate was transferred to A3 and A4 of the 384-well plate, and so on.
(§10) 1) Prepared a 2.5× enzyme solution: added kinase into 1× kinase base buffer.
(§11) 2) Prepared a 2.5× peptide solution: added FAM-labeled peptide and ATP into the 1× kinase base buffer.
(§12) 3) Transferred the 2.5× enzyme solution to the assay plate: Assay plate already contained 5 μm of 10% DMSO and transferred 10 μm of 2.5× enzyme solution to each well.
(§13) 4) Incubated at room temperature for 10 min.
(§14) 5) Transferred the 2.5× peptide solution to the assay plate: added 10 μm of 2.5× peptide solution to each well of the 384-well assay plate.
(§15) 6) Kinase reaction and termination: incubated at 28° C. for a specified period and added 25 μm of stop buffer to stop the reaction.
(§16) 5. Caliper Reading: Collect Data on Caliper.
(§17) 1) Copied conversion data from Caliper program and Converted conversion values to inhibition values: Inhibition rate (%)=(1−OD value of the compound-OD value of the control well)/(OD value of the control empty-OD value of the control well)*100%.
(§18) 2) Fitted the data in XLFit excel add-in version 4.3.1 to give the corresponding IC50 values.

[2] = molecular target: CDK2/CycA2 (Homo sapiens, UniProt P24941); experiment: Determination of CDK activity (Caliper mobility shift, FAM-P8 peptide): CDK2; conditions: CDK2/CycA2; read-out: CDK2 enzymatic inhibitory activity (IC50)
Description: as §1, §3
(§19) 1) 1× Kinase Base Buffer (CDK1, 2, and 6).
as §5, §6
(§20) 1) Transferred 5 μm of each compound from the 96-well intermediate plate to a 384-well plate. […] A2 of the 96-well plate was transferred to A3 and A4 of the 384-well plate, and so on.
as §10, §11, §12, §13, §14, §15, §16, §17, §18

[3] = molecular target: CDK9/cyclinTl (Homo sapiens, UniProt P50750); experiment: Determination of CDK activity (Caliper mobility shift, FAM-P8 peptide): CDK9; conditions: CDK9/cyclinTl; read-out: CDK9 enzymatic inhibitory activity (IC50)
Sequence of CDK9/cyclinTl (P50750 whole entry): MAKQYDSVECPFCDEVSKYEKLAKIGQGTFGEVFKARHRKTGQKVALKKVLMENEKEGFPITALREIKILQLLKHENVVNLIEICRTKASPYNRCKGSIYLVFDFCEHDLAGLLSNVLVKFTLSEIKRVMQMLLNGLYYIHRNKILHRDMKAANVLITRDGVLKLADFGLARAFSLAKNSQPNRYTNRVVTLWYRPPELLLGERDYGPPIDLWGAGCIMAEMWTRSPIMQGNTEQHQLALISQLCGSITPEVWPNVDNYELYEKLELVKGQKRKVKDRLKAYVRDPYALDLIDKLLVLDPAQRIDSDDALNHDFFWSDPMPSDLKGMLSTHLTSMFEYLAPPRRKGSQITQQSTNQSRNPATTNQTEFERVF
Sequence of CDK9/cyclinTl (O60563 whole entry partner): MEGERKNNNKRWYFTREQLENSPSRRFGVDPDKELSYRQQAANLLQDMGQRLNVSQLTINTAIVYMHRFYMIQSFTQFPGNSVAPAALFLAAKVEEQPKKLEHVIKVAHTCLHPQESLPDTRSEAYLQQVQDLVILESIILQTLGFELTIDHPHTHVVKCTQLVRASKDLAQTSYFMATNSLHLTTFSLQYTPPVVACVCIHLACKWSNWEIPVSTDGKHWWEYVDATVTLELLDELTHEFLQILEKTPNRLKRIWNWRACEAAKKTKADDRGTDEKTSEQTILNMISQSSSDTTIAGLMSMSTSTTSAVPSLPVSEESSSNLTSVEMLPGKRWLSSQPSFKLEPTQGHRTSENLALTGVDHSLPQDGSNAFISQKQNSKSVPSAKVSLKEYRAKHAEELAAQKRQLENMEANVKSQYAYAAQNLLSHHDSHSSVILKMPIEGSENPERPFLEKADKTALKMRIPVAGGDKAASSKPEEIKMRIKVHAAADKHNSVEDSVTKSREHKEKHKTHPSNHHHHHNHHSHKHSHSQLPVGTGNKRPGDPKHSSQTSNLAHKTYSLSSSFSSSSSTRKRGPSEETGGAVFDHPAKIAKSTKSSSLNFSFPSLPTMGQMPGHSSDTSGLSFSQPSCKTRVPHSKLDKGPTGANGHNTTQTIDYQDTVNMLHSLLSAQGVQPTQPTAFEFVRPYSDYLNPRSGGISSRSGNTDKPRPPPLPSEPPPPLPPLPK
Description: as §1, §3, §4, §5, §6, §20, §10, §11, §12, §13, §14, §15, §16, §17, §18

[4] = molecular target: CDK1/CyclinB (Homo sapiens, UniProt P06493); experiment: Determination of CDK activity (Caliper mobility shift, FAM-P8 peptide): CDK1; conditions: CDK1/CyclinB; read-out: CDK1 enzymatic inhibitory activity (IC50)
Sequence of CDK1/CyclinB (P06493 whole entry): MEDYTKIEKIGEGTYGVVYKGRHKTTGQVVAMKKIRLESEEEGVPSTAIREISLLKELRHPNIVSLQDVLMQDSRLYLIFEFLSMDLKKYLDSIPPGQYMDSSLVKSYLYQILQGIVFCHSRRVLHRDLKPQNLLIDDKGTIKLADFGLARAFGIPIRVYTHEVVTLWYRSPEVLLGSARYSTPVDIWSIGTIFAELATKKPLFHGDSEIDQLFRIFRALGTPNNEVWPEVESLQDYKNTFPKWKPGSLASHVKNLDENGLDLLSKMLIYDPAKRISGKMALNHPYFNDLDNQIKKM
Sequence of CDK1/CyclinB (P14635 whole entry partner): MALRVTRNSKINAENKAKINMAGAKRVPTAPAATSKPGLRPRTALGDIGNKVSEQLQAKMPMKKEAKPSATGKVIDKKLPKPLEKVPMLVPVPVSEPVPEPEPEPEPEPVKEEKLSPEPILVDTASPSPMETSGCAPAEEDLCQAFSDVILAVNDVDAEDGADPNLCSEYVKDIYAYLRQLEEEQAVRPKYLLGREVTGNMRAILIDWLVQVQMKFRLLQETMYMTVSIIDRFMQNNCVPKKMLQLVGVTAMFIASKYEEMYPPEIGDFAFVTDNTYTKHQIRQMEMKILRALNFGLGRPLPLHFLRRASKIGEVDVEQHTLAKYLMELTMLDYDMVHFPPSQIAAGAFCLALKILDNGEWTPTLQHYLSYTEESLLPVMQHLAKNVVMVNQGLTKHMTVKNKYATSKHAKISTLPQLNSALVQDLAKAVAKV
Description: as §1, §3, §19, §5, §6, §20, §10, §11, §12, §13, §14, §15, §16, §17, §18

[5] = molecular target: CDK4/CycD3 (Homo sapiens, UniProt P11802); experiment: Determination of CDK activity (Caliper mobility shift, FAM-P8 peptide): CDK4; conditions: CDK4/CycD3; read-out: CDK4 enzymatic inhibitory activity (IC50)
Sequence of CDK4/CycD3 (P11802 whole entry): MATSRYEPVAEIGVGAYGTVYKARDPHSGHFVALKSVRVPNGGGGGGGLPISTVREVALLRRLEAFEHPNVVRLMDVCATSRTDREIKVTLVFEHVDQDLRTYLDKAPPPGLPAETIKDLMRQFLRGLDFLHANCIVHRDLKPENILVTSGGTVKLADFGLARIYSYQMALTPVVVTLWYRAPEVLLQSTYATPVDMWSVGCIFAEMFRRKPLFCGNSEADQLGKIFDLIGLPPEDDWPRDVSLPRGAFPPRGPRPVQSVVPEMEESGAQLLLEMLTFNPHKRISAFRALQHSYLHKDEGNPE
Sequence of CDK4/CycD3 (P30281 whole entry partner): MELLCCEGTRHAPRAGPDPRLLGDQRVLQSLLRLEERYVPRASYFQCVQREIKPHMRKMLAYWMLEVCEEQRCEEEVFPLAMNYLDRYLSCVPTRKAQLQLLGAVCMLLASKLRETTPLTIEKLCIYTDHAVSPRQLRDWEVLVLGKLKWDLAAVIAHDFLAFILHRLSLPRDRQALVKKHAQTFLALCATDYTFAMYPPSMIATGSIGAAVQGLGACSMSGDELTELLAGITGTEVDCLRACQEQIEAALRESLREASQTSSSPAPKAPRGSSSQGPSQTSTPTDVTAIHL
Description: as §1, §2, §3
2) 1× Kinase Base Buffer (CDK4).
as §5, §6, §7, §8, §9, §10, §11, §12, §13, §14, §15, §16, §17, §18

[6] = molecular target: CDK6/cycD3 (Homo sapiens, UniProt Q00534); experiment: Determination of CDK activity (Caliper mobility shift, FAM-P8 peptide): CDK6; conditions: CDK6/cycD3; read-out: CDK6 enzymatic inhibitory activity (IC50)
Sequence of CDK6/cycD3 (Q00534 whole entry): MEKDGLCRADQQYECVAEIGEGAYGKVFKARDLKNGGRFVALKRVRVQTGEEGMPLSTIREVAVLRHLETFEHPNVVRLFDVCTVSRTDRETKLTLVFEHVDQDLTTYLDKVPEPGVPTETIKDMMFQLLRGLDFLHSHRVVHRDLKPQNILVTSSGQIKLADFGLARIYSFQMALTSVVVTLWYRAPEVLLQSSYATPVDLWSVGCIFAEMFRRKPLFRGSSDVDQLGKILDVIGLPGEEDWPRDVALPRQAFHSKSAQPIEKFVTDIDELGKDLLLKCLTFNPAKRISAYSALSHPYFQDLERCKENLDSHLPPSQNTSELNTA
Sequence of CDK6/cycD3 (P30281 whole entry partner): as the sequence (P30281 whole entry partner) above
Description: as §1, §2, §3, §19, §5, §6, §7, §8, §9, §10, §11, §12, §13, §14, §15, §16, §17, §18

Sequence of CDK7/CyclinH/MAT1 (P50613 whole entry): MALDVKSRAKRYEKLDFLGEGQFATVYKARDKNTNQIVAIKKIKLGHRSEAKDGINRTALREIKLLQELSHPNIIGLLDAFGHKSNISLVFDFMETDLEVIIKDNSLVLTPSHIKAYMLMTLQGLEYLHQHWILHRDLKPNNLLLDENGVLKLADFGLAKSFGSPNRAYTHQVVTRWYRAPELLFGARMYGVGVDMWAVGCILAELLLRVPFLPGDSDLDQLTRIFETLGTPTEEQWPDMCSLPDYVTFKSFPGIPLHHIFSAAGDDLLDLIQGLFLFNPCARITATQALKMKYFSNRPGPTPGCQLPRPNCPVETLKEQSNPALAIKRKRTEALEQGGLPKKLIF
Sequence of CDK7/CyclinH/MAT1 (P51946 whole entry partner): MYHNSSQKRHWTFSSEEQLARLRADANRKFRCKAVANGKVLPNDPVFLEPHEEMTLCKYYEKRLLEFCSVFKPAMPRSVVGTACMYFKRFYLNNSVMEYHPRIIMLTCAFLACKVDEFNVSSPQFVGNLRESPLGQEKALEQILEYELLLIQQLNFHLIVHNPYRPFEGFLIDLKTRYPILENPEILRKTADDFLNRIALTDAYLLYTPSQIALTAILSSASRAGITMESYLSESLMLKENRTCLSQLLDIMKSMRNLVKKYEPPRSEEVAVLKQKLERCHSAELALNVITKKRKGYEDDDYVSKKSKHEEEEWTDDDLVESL
Sequence of CDK7/CyclinH/MAT1 (P51948 whole entry partner): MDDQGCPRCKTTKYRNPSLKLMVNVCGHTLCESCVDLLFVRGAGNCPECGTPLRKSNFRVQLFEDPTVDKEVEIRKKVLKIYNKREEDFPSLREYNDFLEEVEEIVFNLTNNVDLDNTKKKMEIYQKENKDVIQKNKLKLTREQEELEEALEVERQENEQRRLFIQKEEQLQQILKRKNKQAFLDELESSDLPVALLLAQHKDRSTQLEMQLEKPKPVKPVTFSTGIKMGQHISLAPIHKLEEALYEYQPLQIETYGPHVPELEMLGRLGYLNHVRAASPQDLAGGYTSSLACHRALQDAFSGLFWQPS

SMILES | IC50 [1] [nM] | IC50 [2] [nM] | IC50 [3] [nM] | IC50 [4] [nM] | IC50 [5] [nM] | IC50 [6] [nM]
CCN1CCC(=C(C)c2ccc(Nc3ncc(F)c(-c4cc(F)c5nc(C)n(C(C)C)c5c4)n3)nc2)CC1 [Example 58, N-(5-(1-(1-ethylpiperidin-4-ylidene)ethyl)pyridin-2-yl)-5-fluoro-4-(4-fluoro-1-isopropyl-2-methyl-1H-benzo[d]imidazol-6-yl)pyrimidin-2-amine] | 1000 to 10000 | 100 to 500 | 100 to 500 | 500 to 1000 | < 100 | 100 to 500
Cc1nc2c(F)cc(-c3nc(Nc4ccc(C=C5CCNCC5)cn4)ncc3F)cc2n1C(C)C [Example 59] | 1000 to 10000 | 100 to 500 | 100 to 500 | 500 to 1000 | < 100 | 500 to 1000
Cc1nc2c(F)cc(-c3nc(Nc4ccc(C=C5CCN(C)CC5)cn4)ncc3F)cc2n1C(C)C [Example 60] | 1000 to 10000 | 100 to 500 | 100 to 500 | 500 to 1000 | < 100 | 100 to 500
CC(=C1CCNCC1)c1ccc(Nc2ncc(F)c(-c3cc(F)c4nc(C)n(C(C)C)c4c3)n2)nc1 [Example 61] | 1000 to 10000 | 100 to 500 | 100 to 500 | 500 to 1000 | < 100 | 500 to 1000
CC(=C1CCN(C)CC1)c1ccc(Nc2ncc(F)c(-c3cc(F)c4nc(C)n(C(C)C)c4c3)n2)nc1 [Example 62] | 1000 to 10000 | 100 to 500 | 500 to 1000 | 500 to 1000 | < 100 | 500 to 1000
Cc1nc2c(F)cc(-c3nc(Nc4ccc(C=C5CCN(C(C)C)CC5)cn4)ncc3F)cc2n1C(C)C [Example 64] | 10000 to 100000 | 100 to 500 | 100 to 500 | 1000 to 10000 | < 100 | 100 to 500
Cc1nc2c(F)cc(-c3nc(Nc4ccc(C=C5CCN(C6CC6)CC5)cn4)ncc3F)cc2n1C(C)C [Example 66] | 1000 to 10000 | < 100 | 100 to 500 | 100 to 500 | < 100 | < 100
Cc1nc2c(F)cc(-c3nc(Nc4ccc(C=C5CCN(CCO)CC5)cn4)ncc3F)cc2n1C(C)C [Example 67] | 1000 to 10000 | < 100 | 100 to 500 | 100 to 500 | < 100 | < 100
COCCN1CCC(=Cc2ccc(Nc3ncc(F)c(-c4cc(F)c5nc(C)n(C(C)C)c5c4)n3)nc2)CC1 [Example 68] | 1000 to 10000 | < 100 | 100 to 500 | 100 to 500 | < 100 | < 100
Cc1nc2c(F)cc(-c3nc(Nc4ccc(C=C5CCN(CC(F)F)CC5)cn4)ncc3F)cc2n1C(C)C [Example 69] | 1000 to 10000 | < 100 | 100 to 500 | 100 to 500 | < 100 | < 100
Cc1nc2c(F)cc(-c3nc(Nc4ccc(C=C5CCN(CC(F)(F)F)CC5)cn4)ncc3F)cc2n1C(C)C [Example 70] | 1000 to 10000 | < 100 | 100 to 500 | 100 to 500 | < 100 | < 100
Cc1nc2c(F)cc(-c3nc(Nc4ccc([C@H](C)C5CCN(C6CC6)CC5)cn4)ncc3F)cc2n1C(C)C [Example 75] | 1000 to 10000 | < 100 | 100 to 500 | 100 to 500 | < 100 | < 100
Cc1nc2c(F)cc(-c3nc(Nc4ccc([C@@H](C)C5CCN(C6CC6)CC5)cn4)ncc3F)cc2n1C(C)C [Example 76] | 1000 to 10000 | 100 to 500 | 100 to 500 | 500 to 1000 | < 100 | 100 to 500
Cc1nc2c(F)cc(-c3nc(Nc4ccc([C@H](C)C5CCN(CCO)CC5)cn4)ncc3F)cc2n1C(C)C [Example 77] | 1000 to 10000 | < 100 | 100 to 500 | 100 to 500 | < 100 | < 100
COCCCN1CCC([C@@H](C)c2ccc(Nc3ncc(F)c(-c4cc(F)c5nc(C)n(C(C)C)c5c4)n3)nc2)CC1 [Example 81] | 1000 to 10000 | < 100 | 100 to 500 | 100 to 500 | < 100 | < 100
Cc1nc2c(F)cc(-c3nc(Nc4ccc([C@H](C)C5CCN(CC(F)F)CC5)cn4)ncc3F)cc2n1C(C)C [Example 83] | 1000 to 10000 | < 100 | 100 to 500 | 100 to 500 | < 100 | < 100
Cc1nc2c(F)cc(-c3nc(Nc4ccc([C@H](C)C5CCN(CC(F)(F)F)CC5)cn4)ncc3F)cc2n1C(C)C [Example 85] | 1000 to 10000 | < 100 | 100 to 500 | 100 to 500 | < 100 | < 100
Cc1nc2c(F)cc(-c3nc(Nc4ccc([C@@H](C)C5CCN(CC(F)(F)F)CC5)cn4)ncc3F)cc2n1C(C)C [Example 86] | 1000 to 10000 | 100 to 500 | 100 to 500 | 500 to 1000 | < 100 | 100 to 500

From patent US11179391B2, “Compound with kinase inhibitory activity and preparation method and use thereof” (priority 2017, dated 2021)
